Converted amounts (≈) assume the structure as drawn.
How the values were obtained:
Assay in all cases: ≥ marks a high value that may be exact or a test limit, other limits are often not marked, values filed in µg/mL are converted to µM
[1] = tested on: Staphylococcus aureus ATCC 6538
[2] = tested on: Pseudomonas aeruginosa ATCC 9027
[3] = tested on: Staphylococcus aureus
[4] = tested on: Escherichia coli
[5] = tested on: Candida albicans
[6] = tested on: Bacillus subtilis
[7] = tested on: Bacillus subtilis ATCC 6633
[8] = tested on: Candida albicans ATCC 90028
[9] = tested on: Staphylococcus aureus ATCC 43300
[10] = tested on: Pseudomonas aeruginosa ATCC 27853
[11] = tested on: Staphylococcus aureus ATCC 25923
[12] = tested on: Escherichia coli DH5alpha

Row | Compound | MIC [4] | MIC [6] | MIC [1] | MIC [2] | further results
1 | CC(C)C[C@H](NC(=O)[C@H](CCCCN)NC(=O)[C@H](CCCCN)NC(=O)[C@H](C)NC(=O)[C@H](CC(C)C)NC(=O)[C@H](CCCCN)NC(=O)[C@H](C)NC(=O)[C@H](CC(C)C)NC(=O)[C@H](CCCCN)NC(=O)[C@H](CCCCN)NC(=O)[C@H](CC(C)C)NC(=O)[C@H](CCCCN)NC(=O)[C@H](CCCCN)NC(=O)[C@H](C)NC(=O)[C@@H](N)Cc1ccccc1)C(N)=O [FAKKLKKLAKLAKKL] |  |  | 5.79 µM (≈ 9.99 µg/mL) | 2.89 µM (≈ 5 µg/mL) | 
2 | CC(C)C[C@H](NC(=O)[C@H](CCCCN)NC(=O)[C@H](C)NC(=O)[C@H](CC(C)C)NC(=O)[C@H](CC(C)C)NC(=O)[C@H](CCCCN)NC(=O)[C@H](C)NC(=O)[C@@H](N)Cc1ccccc1)C(=O)N[C@@H](C)C(=O)N[C@@H](CCCCN)C(N)=O [FAKLLAKLAK] |  |  | 45.4 µM (≈ 50 µg/mL) | 181 µM (≈ 200 µg/mL) | 
3 | CC(C)C[C@H](NC(=O)[C@H](CC(C)C)NC(=O)[C@H](CCCCN)NC(=O)[C@H](C)NC(=O)[C@H](CC(C)C)NC(=O)[C@H](CCCCN)NC(=O)[C@H](CCCCN)NC(=O)[C@H](C)NC(=O)[C@H](CC(C)C)NC(=O)[C@H](CCCCN)NC(=O)[C@H](CCCCN)NC(=O)[C@H](C)NC(=O)[C@@H](N)Cc1ccccc1)C(N)=O [FAKKLAKKLAKLL] |  |  | 3.4 µM (≈ 5 µg/mL) | 3.4 µM (≈ 5 µg/mL) | 
4 | CC(C)C[C@H](NC(=O)CNC(=O)[C@@H](NC(=O)[C@@H]1CCCN1C(=O)[C@H](CC(C)C)NC(=O)CNC(=O)[C@H](CC(N)=O)NC(=O)[C@H](CC(N)=O)NC(=O)[C@H](Cc1c[nH]c2ccccc12)NC(=O)[C@@H](NC(=O)[C@H](CCCN=C(N)N)NC(=O)[C@H](CS)NC(=O)[C@H](CCCN=C(N)N)NC(=O)[C@H](Cc1cnc[nH]1)NC(=O)[C@H](CCCCN)NC(=O)[C@H](CCCCN)NC(=O)[C@H](CCCN=C(N)N)NC(=O)[C@@H](N)CCCCN)C(C)C)[C@@H](C)O)C(=O)N[C@@H](Cc1ccc(O)cc1)C(=O)N[C@@H](CCCN=C(N)N)C(=O)N[C@@H](Cc1c[nH]c2ccccc12)C(=O)N[C@@H](CS)C(N)=O [KRKKHRCRVWNNGLPTGLYRWC] |  |  | 8 µM (≈ 22.2 µg/mL) |  | 
5 | CC[C@H](C)[C@H](NC(=O)[C@H](CC(C)C)NC(=O)[C@H](CC(C)C)NC(=O)[C@H](CC(=O)O)NC(=O)[C@H](CCCCN)NC(=O)[C@@H](NC(=O)[C@H](C)NC(=O)CNC(=O)[C@H](CC(C)C)NC(=O)[C@@H](NC(=O)CN)C(C)C)C(C)C)C(=O)NCC(=O)N[C@@H](C)C(=O)NCC(=O)N[C@@H](CCCCN)C(=O)N[C@@H](CO)C(=O)N[C@@H](C)C(=O)N[C@@H](C)C(=O)N[C@@H](CCC(N)=O)C(=O)N[C@@H](CO)C(=O)N[C@H](C(=O)N[C@@H](CC(C)C)C(=O)N[C@@H](CCCCN)C(=O)N[C@H](C(=O)N[C@@H](CC(C)C)C(=O)N[C@@H](CO)C(=O)N[C@H]1CSSC[C@@H](C(=O)O)NC(=O)[C@H](CC(=O)O)NC(=O)[C@H](CC(N)=O)NC(=O)[C@H](CO)NC(=O)[C@H](CC(C)C)NC(=O)[C@H](CCCCN)NC1=O)[C@@H](C)O)C(C)C [GVLGAVKDLLIGAGKSAAQSVLKTLSCKLSNDC] | 2.52 µM (≈ 8.21 µg/mL) | 5.04 µM (≈ 16.4 µg/mL) |  |  | MIC [3]: 1.26 µM (≈ 4.11 µg/mL); MIC [5]: 0.629 µM (≈ 2.05 µg/mL)
6 | CC[C@H](C)[C@@H]1NC(=O)[C@H](C)NC(=O)[C@@H](NC(=O)[C@@H](NC(=O)[C@@H](NC(=O)[C@H](C)NC(=O)[C@@H]2CCCN2C(=O)CNC(=O)[C@@H](NC(=O)[C@H](CCCCN)NC(=O)[C@@H](NC(=O)[C@@H](NC(=O)[C@H](CC(C)C)NC(=O)[C@H](CCCN=C(N)N)NC(=O)[C@H](CC(C)C)NC(=O)[C@@H](NC(=O)CNC(=O)[C@@H]2CCCN2C(=O)[C@H](CC(C)C)NC(=O)[C@@H](N)Cc2ccccc2)C(C)C)C(C)C)[C@@H](C)O)C(C)C)C(C)C)C(C)C)CSSC[C@@H](C(=O)O)NC(=O)[C@H](CC(N)=O)NC(=O)[C@H](CCCN=C(N)N)NC(=O)[C@H]([C@@H](C)O)NC1=O [FLPGVLRLVTKVGPAVVCAITRNC] |  |  | 3.1 µM (≈ 7.83 µg/mL) |  | MIC [7]: 6.3 µM (≈ 15.9 µg/mL); MIC [8]: ≥ 50 µM; MIC [9]: 3.1 µM (≈ 7.83 µg/mL)
7 | CC(C)C[C@H](NC(=O)[C@H](C)NC(=O)[C@H](CCCCN)NC(=O)[C@H](CCCCN)NC(=O)[C@H](CC(C)C)NC(=O)[C@H](C)NC(=O)[C@H](CCCCN)NC(=O)[C@H](CCCCN)NC(=O)[C@H](CC(C)C)NC(=O)[C@H](CCCCN)NC(=O)[C@H](CCCCN)NC(=O)[C@H](CC(C)C)NC(=O)[C@H](C)NC(=O)[C@H](CCCCN)NC(=O)[C@H](CCCCN)NC(=O)[C@H](Cc1ccccc1)NC(=O)[C@H](CC(C)C)NC(=O)[C@H](CCCCN)NC(=O)[C@H](Cc1c[nH]c2ccccc12)NC(=O)[C@@H](N)CCCCN)C(N)=O [KWKLFKKALKKLKKALKKAL] |  |  | 4.15 µM (≈ 10 µg/mL) | 4.15 µM (≈ 10 µg/mL) | 
8 | CC[C@H](C)[C@H](NC(=O)CNC(=O)[C@H](CCCCN)NC(=O)CNC(=O)[C@H](Cc1ccccc1)NC(=O)[C@H](C)NC(=O)[C@H](CC(C)C)NC(=O)[C@H](CCCCN)NC(=O)[C@H](C)NC(=O)[C@H](Cc1c[nH]c2ccccc12)NC(=O)[C@H](CC(C)C)NC(=O)[C@H](CCCCN)NC(=O)[C@H](C)NC(=O)[C@@H](N)Cc1ccccc1)C(=O)NCC(=O)N[C@@H](CCCCN)C(=O)N[C@H](C(=O)NCC(=O)N[C@@H](CCCCN)C(=O)N[C@@H](CCCCN)C(=O)N[C@@H](CC(C)C)C(=O)N[C@@H](CC(C)C)C(N)=O)C(C)C [FAKLWAKLAFGKGIGKVGKKLL] |  |  | 6.32 µM (≈ 15 µg/mL) | 4.21 µM (≈ 10 µg/mL) | 
9 | CC(C)C[C@H](NC(=O)[C@@H](NC(=O)[C@H](CCCCN)NC(=O)[C@H](CCCCN)NC(=O)[C@H](C)NC(=O)[C@H](CC(C)C)NC(=O)[C@H](CCCCN)NC(=O)[C@H](C)NC(=O)[C@H](CC(C)C)NC(=O)[C@H](CC(C)C)NC(=O)[C@H](CCCCN)NC(=O)[C@H](C)NC(=O)[C@@H](N)Cc1ccccc1)C(C)C)C(N)=O [FAKLLAKLAKKVL] |  |  | 3.47 µM (≈ 5 µg/mL) | 69.3 µM (≈ 99.9 µg/mL) | 

More lines, main results first:

Row | MIC [4] | MIC [6] | Compound | MIC [1] | MIC [2] | further results
10 | 4.75 µM (≈ 9.36 µg/mL) | 19 µM (≈ 37.5 µg/mL) | CC[C@H](C)[C@H](NC(=O)CNC(=O)[C@H](CO)NC(=O)[C@H](CC(C)C)NC(=O)[C@H](CC(C)C)NC(=O)CN)C(=O)N[C@@H](CC(C)C)C(=O)NCC(=O)N[C@@H](C)C(=O)NCC(=O)N[C@@H](CCCCN)C(=O)N[C@@H](CCC(N)=O)C(=O)N[C@@H](CCCCN)C(=O)N[C@H](C(=O)N[C@H]1CSSC[C@@H](C(=O)O)NC(=O)[C@H](CC(C)C)NC(=O)CNC(=O)[C@H](CO)NC(=O)[C@H](CC(C)C)NC(=O)CNC1=O)C(C)C [GLLSGILGAGKQKVCGLSGLC] |  |  | MIC [3]: 9.5 µM (≈ 18.7 µg/mL); MIC [5]: 2.37 µM (≈ 4.68 µg/mL)
11 | 100 µM (≈ 150 µg/mL) | ≥ 75 µM | CC[C@H](C)[C@H](NC(=O)[C@H](CO)NC(=O)[C@H](C)NC(=O)[C@@H](NC(=O)[C@H](CCCCN)NC(=O)[C@@H](N)CCCCN)[C@@H](C)CC)C(=O)NCC(=O)N[C@@H](CCCCN)C(=O)N[C@@H](CCC(=O)O)C(=O)N[C@H](C(=O)N[C@@H](CC(C)C)C(=O)N[C@@H](CCCCN)C(=O)N[C@@H](C)C(=O)N[C@@H](CC(C)C)C(N)=O)C(C)C [KKIASIGKEVLKAL] |  |  | 
12 |  | 5 µM (≈ 8.54 µg/mL) | CC[C@H](C)[C@H](NC(=O)[C@H](Cc1ccccc1)NC(=O)[C@@H](NC(=O)[C@H](Cc1c[nH]c2ccccc12)NC(=O)[C@H](CCCN=C(N)N)NC(=O)[C@H](CCCCN)NC(=O)[C@H](CCCN=C(N)N)NC(=O)[C@H](CCCCN)NC(=O)[C@H](Cc1c[nH]c2ccccc12)NC(=O)[C@H](CC(C)C)NC(=O)[C@@H](NC(=O)[C@@H](N)Cc1ccc(O)cc1)C(C)C)[C@@H](C)CC)C(=O)O [YVLWKRKRWIFI] |  |  | MIC [10]: 150 µM (≈ 256 µg/mL); MIC [11]: 40 µM (≈ 68.3 µg/mL); MIC [12]: ≥ 60 µM
13 |  | ≥ 200 µM | CC[C@H](C)[C@H](NC(=O)[C@H](Cc1ccccc1)NC(=O)[C@@H](NC(=O)[C@H](C)NC(=O)[C@H](CCCN=C(N)N)NC(=O)[C@H](CCCCN)NC(=O)[C@H](CCCN=C(N)N)NC(=O)[C@H](CCCCN)NC(=O)[C@H](C)NC(=O)[C@H](CC(C)C)NC(=O)[C@@H](NC(=O)[C@@H](N)Cc1ccc(O)cc1)C(C)C)[C@@H](C)CC)C(=O)O [YVLAKRKRAIFI] |  |  | MIC [10]: > 200 µM; MIC [11]: > 200 µM; MIC [12]: ≥ 200 µM
14 | 9.77 µM (≈ 17.5 µg/mL) | 9.77 µM (≈ 17.5 µg/mL) | CC[C@H](C)[C@@H]1NC(=O)[C@H](Cc2ccc(O)cc2)NC(=O)[C@@H](NC(=O)[C@H](CCCN=C(N)N)NC(=O)[C@H](CO)NC(=O)[C@@H](N)[C@@H](C)O)CSSC[C@@H](C(=O)N[C@@H](CO)C(=O)O)NC(=O)[C@H](C(C)C)NC(=O)[C@H](C(C)C)NC(=O)[C@H](CCCCN)NC(=O)[C@H](CCCN=C(N)N)NC(=O)[C@H](CCCN=C(N)N)NC(=O)[C@H](Cc2ccc(O)cc2)NC(=O)CNC1=O [TSRCYIGYRRKVVCS] |  |  | MIC [3]: 19.5 µM (≈ 35 µg/mL); MIC [5]: 4.89 µM (≈ 8.74 µg/mL)
15 | 93.5 µM (≈ 161 µg/mL) | 5.81 µM (≈ 9.99 µg/mL) | CC[C@H](C)[C@H](NC(=O)[C@H](CC(C)C)NC(=O)[C@H](C)NC(=O)[C@@H]1CCCN1C(=O)[C@H](CC(C)C)NC(=O)CN)C(=O)N[C@@H](CO)C(=O)N[C@@H](CC(C)C)C(=O)N[C@H](C(=O)N[C@@H](CCCCN)C(=O)N[C@@H](CCCN=C(N)N)C(=O)N[C@@H](CCCCN)C(=O)N[C@@H](CCCN=C(N)N)C(=O)N[C@@H](CCC(N)=O)C(=O)N[C@@H](CCC(N)=O)C(N)=O)[C@@H](C)CC [GLPALISLIKRKRQQ] |  |  | MIC [3]: 7.84 µM (≈ 13.5 µg/mL)

Reference: DBAASP
